Experimental data taken from patent US11078202B2, “β-lactamase inhibitor and use thereof” (priority 2018, dated 2021).
Structures can show the parent of a compound that is named as a salt.

What was measured:
Assay type in all cases: cell-based
[1] = system: Klebsiella pneumoniae XNWB 0004; test: MIC assay of test compounds combined with imipenem (4 μg/mL); conditions: imipenem 4 μg/mL fixed
Summary of the method: (§1)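 We recorded each combination MIC according to CLSI after culturing plates at 35±2 °C for 16-20 h. The inoculum consisted of colonies suspended in 0.9% NaCl (OD600 0.1-0.15) and diluted 300-fold with 1.1×CAMHB, mixed with compound dilutions and the partner β-lactam.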

[2] = system: Pseudomonas aeruginosa XNWB 0008; test: as above; conditions: imipenem 4 μg/mL fixed
Summary of the method: as §1

[3] = system: Klebsiella pneumoniae XNWB 0001; test: as above; conditions: imipenem 4 μg/mL fixed
Summary of the method: as §1

[4] = system: Klebsiella pneumoniae XNWB 0002; test: as above; conditions: imipenem 4 μg/mL fixed
Summary of the method: as §1

[5] = system: Klebsiella pneumoniae XNWB 0006; test: as above; conditions: imipenem 4 μg/mL fixed
Summary of the method: as §1

[6] = system: Klebsiella pneumoniae XNWB 0003; test: as above; conditions: imipenem 4 μg/mL fixed
Summary of the method: as §1

[7] = system: Klebsiella pneumoniae XNWB 0005; test: as above; conditions: imipenem 4 μg/mL fixed
Summary of the method: as §1

[8] = system: Acinetobacter baumannii XNWB 0007; test: as above; conditions: imipenem 4 μg/mL fixed
Summary of the method: as §1

[9] = system: Klebsiella pneumoniae XNWB 0004; test: MIC assay of test compounds combined with ceftazidime (8 μg/mL); conditions: ceftazidime 8 μg/mL fixed
Summary of the method: as §1

[10] = system: Pseudomonas aeruginosa XNWB 0008; test: as above; conditions: ceftazidime 8 μg/mL fixed
Summary of the method: as §1

[11] = system: Klebsiella pneumoniae XNWB 0001; test: as above; conditions: ceftazidime 8 μg/mL fixed
Summary of the method: as §1

[12] = system: Klebsiella pneumoniae XNWB 0002; test: as above; conditions: ceftazidime 8 μg/mL fixed
Summary of the method: as §1

[13] = system: Klebsiella pneumoniae XNWB 0006; test: as above; conditions: ceftazidime 8 μg/mL fixed
Summary of the method: as §1

[14] = system: Klebsiella pneumoniae XNWB 0003; test: as above; conditions: ceftazidime 8 μg/mL fixed
Summary of the method: as §1

[15] = system: Klebsiella pneumoniae XNWB 0005; test: as above; conditions: ceftazidime 8 μg/mL fixed
Summary of the method: as §1

[16] = system: Acinetobacter baumannii XNWB 0007; test: as above; conditions: ceftazidime 8 μg/mL fixed
Summary of the method: as §1

SMILES: N=C(N)NCCc1nnc([C@@H]2CC3(CC3)[C@@H]3CN2C(=O)N3OS(=O)(=O)O)o1 [Example 5, (1R,4S)-4-(5-(2-guanidinoethyl)-1,3,4-oxadiazol-2-yl)-6-oxo-5,7-diazaspiro[bicycle [3.2.1]octane-2,1′-cyclopropan]-7-yl sulfate]
- The minimum concentration of test compounds combined with imipenem (4 μg/mL) for bacteriostasis [1]: A (A: <8 μg/mL)
- The minimum concentration of test compounds combined with imipenem (4 μg/mL) for bacteriostasis [2]: B (B: 8-16 μg/mL)
- The minimum concentration of test compounds combined with imipenem (4 μg/mL) for bacteriostasis [3]: A (A: <8 μg/mL)
- The minimum concentration of test compounds combined with imipenem (4 μg/mL) for bacteriostasis [4]: A (A: <8 μg/mL)
- The minimum concentration of test compounds combined with imipenem (4 μg/mL) for bacteriostasis [5]: A (A: <8 μg/mL)
- The minimum concentration of test compounds combined with imipenem (4 μg/mL) for bacteriostasis [6]: A (A: <8 μg/mL)
- The minimum concentration of test compounds combined with imipenem (4 μg/mL) for bacteriostasis [7]: A (A: <8 μg/mL)
- The minimum concentration of test compounds combined with imipenem (4 μg/mL) for bacteriostasis [8]: B (B: 8-16 μg/mL)
- The minimum concentration of test compounds combined with ceftazidime (8 μg/mL) for bacteriostasis [9]: B (B: 8-16 μg/mL)
- The minimum concentration of test compounds combined with ceftazidime (8 μg/mL) for bacteriostasis [10]: C (C: 16-128 μg/mL)
- The minimum concentration of test compounds combined with ceftazidime (8 μg/mL) for bacteriostasis [11]: A (A: <8 μg/mL)
- The minimum concentration of test compounds combined with ceftazidime (8 μg/mL) for bacteriostasis [12]: A (A: <8 μg/mL)
- The minimum concentration of test compounds combined with ceftazidime (8 μg/mL) for bacteriostasis [13]: A (A: <8 μg/mL)
- The minimum concentration of test compounds combined with ceftazidime (8 μg/mL) for bacteriostasis [14]: A (A: <8 μg/mL)
- The minimum concentration of test compounds combined with ceftazidime (8 μg/mL) for bacteriostasis [15]: B (B: 8-16 μg/mL)
- The minimum concentration of test compounds combined with ceftazidime (8 μg/mL) for bacteriostasis [16]: C (C: 16-128 μg/mL)

SMILES: N=C(N)NCc1cc([C@@H]2CC3(CC3)[C@@H]3CN2C(=O)N3OS(=O)(=O)O)no1 [Example 34, (1R,4S)-4-(5-(guanidinomethyl)isoxazol-3-yl)-6-oxo-5,7-diazaspiro[bicyclo[3.2.1]octane-2,1′-cyclopropan]-7-yl sulfate]
- The minimum concentration of test compounds combined with imipenem (4 μg/mL) for bacteriostasis [1]: A (A: <8 μg/mL)
- The minimum concentration of test compounds combined with imipenem (4 μg/mL) for bacteriostasis [2]: B (B: 8-16 μg/mL)
- The minimum concentration of test compounds combined with imipenem (4 μg/mL) for bacteriostasis [3]: A (A: <8 μg/mL)
- The minimum concentration of test compounds combined with imipenem (4 μg/mL) for bacteriostasis [4]: A (A: <8 μg/mL)
- The minimum concentration of test compounds combined with imipenem (4 μg/mL) for bacteriostasis [5]: A (A: <8 μg/mL)
- The minimum concentration of test compounds combined with imipenem (4 μg/mL) for bacteriostasis [6]: A (A: <8 μg/mL)
- The minimum concentration of test compounds combined with imipenem (4 μg/mL) for bacteriostasis [7]: A (A: <8 μg/mL)
- The minimum concentration of test compounds combined with imipenem (4 μg/mL) for bacteriostasis [8]: B (B: 8-16 μg/mL)
- The minimum concentration of test compounds combined with ceftazidime (8 μg/mL) for bacteriostasis [9]: B (B: 8-16 μg/mL)
- The minimum concentration of test compounds combined with ceftazidime (8 μg/mL) for bacteriostasis [10]: C (C: 16-128 μg/mL)
- The minimum concentration of test compounds combined with ceftazidime (8 μg/mL) for bacteriostasis [11]: A (A: <8 μg/mL)
- The minimum concentration of test compounds combined with ceftazidime (8 μg/mL) for bacteriostasis [12]: A (A: <8 μg/mL)
- The minimum concentration of test compounds combined with ceftazidime (8 μg/mL) for bacteriostasis [13]: A (A: <8 μg/mL)
- The minimum concentration of test compounds combined with ceftazidime (8 μg/mL) for bacteriostasis [14]: A (A: <8 μg/mL)
- The minimum concentration of test compounds combined with ceftazidime (8 μg/mL) for bacteriostasis [15]: B (B: 8-16 μg/mL)
- The minimum concentration of test compounds combined with ceftazidime (8 μg/mL) for bacteriostasis [16]: C (C: 16-128 μg/mL)

SMILES: N=C(N)NC[C@H](O)c1nnc([C@@H]2CC3(CC3)[C@@H]3CN2C(=O)N3OS(=O)(=O)O)o1 [Example 12, (1R,4S)-4-(5-((S)-2-guanidyl-1-hydroxyethyl)-1,3,4-oxadiazol-2-yl)-6-oxo-5,7-diazaspiro[bicyclo[3.2.1]octane-2,1′-cyclopropan]-7-yl sulfate]
- The minimum concentration of test compounds combined with imipenem (4 μg/mL) for bacteriostasis [1]: A (A: <8 μg/mL)
- The minimum concentration of test compounds combined with imipenem (4 μg/mL) for bacteriostasis [2]: B (B: 8-16 μg/mL)
- The minimum concentration of test compounds combined with imipenem (4 μg/mL) for bacteriostasis [3]: A (A: <8 μg/mL)
- The minimum concentration of test compounds combined with imipenem (4 μg/mL) for bacteriostasis [4]: A (A: <8 μg/mL)
- The minimum concentration of test compounds combined with imipenem (4 μg/mL) for bacteriostasis [5]: A (A: <8 μg/mL)
- The minimum concentration of test compounds combined with imipenem (4 μg/mL) for bacteriostasis [6]: A (A: <8 μg/mL)
- The minimum concentration of test compounds combined with imipenem (4 μg/mL) for bacteriostasis [7]: A (A: <8 μg/mL)
- The minimum concentration of test compounds combined with imipenem (4 μg/mL) for bacteriostasis [8]: B (B: 8-16 μg/mL)
- The minimum concentration of test compounds combined with ceftazidime (8 μg/mL) for bacteriostasis [9]: B (B: 8-16 μg/mL)
- The minimum concentration of test compounds combined with ceftazidime (8 μg/mL) for bacteriostasis [10]: C (C: 16-128 μg/mL)
- The minimum concentration of test compounds combined with ceftazidime (8 μg/mL) for bacteriostasis [11]: B (B: 8-16 μg/mL)
- The minimum concentration of test compounds combined with ceftazidime (8 μg/mL) for bacteriostasis [12]: A (A: <8 μg/mL)
- The minimum concentration of test compounds combined with ceftazidime (8 μg/mL) for bacteriostasis [13]: A (A: <8 μg/mL)
- The minimum concentration of test compounds combined with ceftazidime (8 μg/mL) for bacteriostasis [14]: A (A: <8 μg/mL)
- The minimum concentration of test compounds combined with ceftazidime (8 μg/mL) for bacteriostasis [15]: A (A: <8 μg/mL)
- The minimum concentration of test compounds combined with ceftazidime (8 μg/mL) for bacteriostasis [16]: C (C: 16-128 μg/mL)

SMILES: N=C(N)NCC(O)c1nnc([C@@H]2CC3(CC3)[C@@H]3CN2C(=O)N3OS(=O)(=O)O)o1 (stereo partly drawn) [Example 10, (1R,4S)-4-(5-(2-guanidyl-1-hydroxyethyl)-1,3,4-oxadiazol-2-yl)-6-oxo-5,7-diazaspiro [bicyclo[3.2.1]octane-2,1′-cyclopropan]-7-yl sulfate]
- The minimum concentration of test compounds combined with imipenem (4 μg/mL) for bacteriostasis [1]: A (A: <8 μg/mL)
- The minimum concentration of test compounds combined with imipenem (4 μg/mL) for bacteriostasis [2]: A (A: <8 μg/mL)
- The minimum concentration of test compounds combined with imipenem (4 μg/mL) for bacteriostasis [3]: A (A: <8 μg/mL)
- The minimum concentration of test compounds combined with imipenem (4 μg/mL) for bacteriostasis [4]: A (A: <8 μg/mL)
- The minimum concentration of test compounds combined with imipenem (4 μg/mL) for bacteriostasis [5]: A (A: <8 μg/mL)
- The minimum concentration of test compounds combined with imipenem (4 μg/mL) for bacteriostasis [6]: A (A: <8 μg/mL)
- The minimum concentration of test compounds combined with imipenem (4 μg/mL) for bacteriostasis [7]: A (A: <8 μg/mL)
- The minimum concentration of test compounds combined with imipenem (4 μg/mL) for bacteriostasis [8]: A (A: <8 μg/mL)
- The minimum concentration of test compounds combined with ceftazidime (8 μg/mL) for bacteriostasis [9]: A (A: <8 μg/mL)
- The minimum concentration of test compounds combined with ceftazidime (8 μg/mL) for bacteriostasis [10]: B (B: 8-16 μg/mL)
- The minimum concentration of test compounds combined with ceftazidime (8 μg/mL) for bacteriostasis [11]: A (A: <8 μg/mL)
- The minimum concentration of test compounds combined with ceftazidime (8 μg/mL) for bacteriostasis [12]: A (A: <8 μg/mL)
- The minimum concentration of test compounds combined with ceftazidime (8 μg/mL) for bacteriostasis [13]: A (A: <8 μg/mL)
- The minimum concentration of test compounds combined with ceftazidime (8 μg/mL) for bacteriostasis [14]: A (A: <8 μg/mL)
- The minimum concentration of test compounds combined with ceftazidime (8 μg/mL) for bacteriostasis [15]: A (A: <8 μg/mL)
- The minimum concentration of test compounds combined with ceftazidime (8 μg/mL) for bacteriostasis [16]: C (C: 16-128 μg/mL)
